Results: PubChem BioAssay (NCI)
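48-hour exposure; five concentrations; linearly interpolated endpoints. Definition used: TGI = concentration required for complete inhibition of growth.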

Tests used:
Test in all cases: growth of human tumour cells (NCI), 48 h
[1] = system: HOP-92 NSCLC
[2] = system: HT29 colon
[3] = system: KM12 colon
[4] = system: M14 melanoma
[5] = system: MALME-3M melanoma
[6] = system: MCF7 breast
[7] = system: MDA-MB-231 breast
[8] = system: MOLT-4 leukemia
[9] = system: NCI/ADR-RES ovarian
[10] = system: OVCAR-4 ovarian
[11] = system: OVCAR-5 ovarian
[12] = system: PC-3 prostate
[13] = system: SF-268 CNS
[14] = system: SF-295 CNS
[15] = system: SK-MEL-5 melanoma
[16] = system: SN12C renal
[17] = system: SNB-75 CNS
[18] = system: SW-620 colon
[19] = system: U251 CNS
[20] = system: UACC-62 melanoma

## Nc1nc(Cl)c(N)c(NCC2(CO)CCC2)n1
[1]
  TGI: > 100 µM
[2]
  TGI: > 100 µM
[3]
  TGI: > 100 µM
[4]
  TGI: > 100 µM
[5]
  TGI: > 100 µM
[6]
  TGI: > 100 µM
[7]
  TGI: > 100 µM
[8]
  TGI: > 100 µM
[9]
  TGI: > 100 µM
[10]
  TGI: > 100 µM
[11]
  TGI: > 100 µM
[12]
  TGI: > 100 µM
[13]
  TGI: > 100 µM
[14]
  TGI: > 100 µM
[15]
  TGI: > 100 µM
[16]
  TGI: > 100 µM
[17]
  TGI: > 100 µM
[18]
  TGI: > 100 µM
[19]
  TGI: > 100 µM
[20]
  TGI: > 100 µM

## COc1cc(OCc2ccc3nc(-c4ccccc4)c(Cl)nc3c2)cc(OC)c1OC
[1]
  TGI: 78.3 µM
[2]
  TGI: > 100 µM
[3]
  TGI: > 100 µM
[4]
  TGI: > 100 µM
[5]
  TGI: 96.1 µM
[6]
  TGI: > 100 µM
[7]
  TGI: > 100 µM
[8]
  TGI: > 100 µM
[9]
  TGI: > 100 µM
[10]
  TGI: > 100 µM
[11]
  TGI: > 100 µM
[12]
  TGI: > 100 µM
[13]
  TGI: > 100 µM
[14]
  TGI: > 100 µM
[15]
  TGI: > 100 µM
[16]
  TGI: > 100 µM
[17]
  TGI: > 100 µM
[18]
  TGI: > 100 µM
[19]
  TGI: 52.3 µM
[20]
  TGI: > 100 µM

## COCC(N=CN1CCCc2ccccc2[C@@H]1CCCCl)C(C)(C)C (stereo not given in full)
[1]
  TGI: 30 µM
[2]
  TGI: 69.7 µM
[3]
  TGI: 20.3 µM
[4]
  TGI: 18.3 µM
[5]
  TGI: 6.27 µM
[6]
  TGI: 4.28 µM
[7]
  TGI: 9.48 µM
[8]
  TGI: 15.5 µM
[9]
  TGI: 3.19 µM
[10]
  TGI: 36 µM
[11]
  TGI: 49.5 µM
[12]
  TGI: 91.4 µM
[13]
  TGI: > 100 µM
[14]
  TGI: 35.1 µM
[15]
  TGI: 9.35 µM
[16]
  TGI: 59 µM
[17]
  TGI: 11.8 µM
[18]
  TGI: 57.6 µM
[19]
  TGI: 34.8 µM
[20]
  TGI: 32.1 µM

## CC[C@](O)(CC(=O)O[C@H]1C(=O)O[C@@H]2C[C@H]3C(C)=CC(=O)[C@@H](O)[C@]3(C)[C@H]3[C@@]4(O)OC[C@]32[C@@H]1[C@@H](C)[C@H]4O)C(C)C
[1]
  TGI: < 0.01 µM
[2]
  TGI: < 0.01 µM
[3]
  TGI: < 0.01 µM
[4]
  TGI: < 0.01 µM
[5]
  TGI: < 0.01 µM
[6]
  TGI: < 0.0392 µM
[7]
  TGI: < 0.0119 µM
[8]
  TGI: < 0.01 µM
[9]
  TGI: 0.242 µM
[10]
  TGI: < 0.0144 µM
[11]
  TGI: < 0.01 µM
[12]
  TGI: < 0.01 µM
[13]
  TGI: < 0.01 µM
[14]
  TGI: < 0.01 µM
[15]
  TGI: < 0.01 µM
[16]
  TGI: < 0.01 µM
[17]
  TGI: < 0.01 µM
[18]
  TGI: < 0.01 µM
[19]
  TGI: < 0.01 µM
[20]
  TGI: < 0.01 µM

## C=C1C(=O)C23CC1C[C@H](OC(C)=O)[C@H]2C1(C)C(OC(C)=O)C[C@H](O)C(C)(C)[C@H]1C(=O)[C@@H]3OC(C)=O (stereo not given in full)
[1]
  TGI: 7.84 µM
[2]
  TGI: 17 µM
[3]
  TGI: 23.8 µM
[4]
  TGI: 9.5 µM
[5]
  TGI: 5.15 µM
[6]
  TGI: 14 µM
[7]
  TGI: 11.7 µM
[8]
  TGI: 4.03 µM
[9]
  TGI: 35.6 µM
[10]
  TGI: 16.3 µM
[11]
  TGI: 22.5 µM
[12]
  TGI: 24.6 µM
[13]
  TGI: 25.3 µM
[14]
  TGI: 31.9 µM
[15]
  TGI: 27.4 µM
[16]
  TGI: 15.1 µM
[17]
  TGI: 32.8 µM
[18]
  TGI: 3.6 µM
[19]
  TGI: 29.3 µM
[20]
  TGI: 9.51 µM

## O=C(c1ccccc1)c1ccc2nc3n(c2c1)C(c1c(F)cccc1F)SC3 (stereo not given)
[1]
  TGI: > 100 µM
[2]
  TGI: 39.5 µM
[3]
  TGI: 14.3 µM
[4]
  TGI: 15.4 µM
[5]
  TGI: 46.7 µM
[6]
  TGI: 50.5 µM
[7]
  TGI: > 100 µM
[8]
  TGI: 27.6 µM
[9]
  TGI: 26.5 µM
[10]
  TGI: > 73.6 µM
[11]
  TGI: > 91.1 µM
[12]
  TGI: > 80.7 µM
[13]
  TGI: > 70.2 µM
[14]
  TGI: 13.8 µM
[15]
  TGI: 18.1 µM
[16]
  TGI: 34.8 µM
[17]
  TGI: 29.4 µM
[18]
  TGI: > 100 µM
[19]
  TGI: > 63.4 µM
[20]
  TGI: 21.3 µM

## Cc1cc(C)nc(NS(=O)(=O)c2ccc(NNc3c4ccccc4nc4c(C(=O)Nc5ccc(S(=O)(=O)Nc6ncccn6)cc5)cccc34)cc2)n1
[1]
  TGI: 66.5 µM
[2]
  TGI: 77.4 µM
[3]
  TGI: > 100 µM
[4]
  TGI: > 100 µM
[5]
  TGI: 60.3 µM
[6]
  TGI: > 100 µM
[7]
  TGI: 65.3 µM
[8]
  TGI: 92.9 µM
[9]
  TGI: > 100 µM
[10]
  TGI: 89.7 µM
[11]
  TGI: 52.5 µM
[12]
  TGI: 71.3 µM
[13]
  TGI: > 100 µM
[14]
  TGI: > 100 µM
[15]
  TGI: 47.5 µM
[16]
  TGI: 75.1 µM
[17]
  TGI: 73.9 µM
[18]
  TGI: 55.2 µM
[19]
  TGI: 56 µM
[20]
  TGI: 83.7 µM

## COc1cc(S(=O)(=O)Nc2nc(-c3ccc(N4C(=O)CSC4c4cccs4)cc3)cs2)ccc1Cl (stereo not given)
[1]
  TGI: > 100 µM
[2]
  TGI: > 100 µM
[3]
  TGI: > 100 µM
[4]
  TGI: > 100 µM
[5]
  TGI: > 100 µM
[6]
  TGI: > 100 µM
[7]
  TGI: > 100 µM
[8]
  TGI: > 100 µM
[9]
  TGI: > 100 µM
[10]
  TGI: 97.7 µM
[11]
  TGI: > 100 µM
[12]
  TGI: > 100 µM
[13]
  TGI: > 100 µM
[14]
  TGI: > 100 µM
[15]
  TGI: > 100 µM
[16]
  TGI: 77.8 µM
[17]
  TGI: > 100 µM
[18]
  TGI: > 100 µM
[19]
  TGI: > 100 µM
[20]
  TGI: > 100 µM

## C[C@]12C[C@H](c3ccccc3)Nc3ccccc3N1C(c1ccccc1)=NO2
[1]
  TGI: > 100 µM
[2]
  TGI: > 100 µM
[3]
  TGI: > 100 µM
[4]
  TGI: > 100 µM
[5]
  TGI: > 100 µM
[6]
  TGI: > 100 µM
[7]
  TGI: > 100 µM
[8]
  TGI: 78.8 µM
[9]
  TGI: > 100 µM
[10]
  TGI: > 100 µM
[11]
  TGI: > 100 µM
[12]
  TGI: > 100 µM
[13]
  TGI: > 100 µM
[14]
  TGI: > 100 µM
[15]
  TGI: > 100 µM
[16]
  TGI: > 100 µM
[17]
  TGI: > 100 µM
[18]
  TGI: > 100 µM
[19]
  TGI: > 100 µM
[20]
  TGI: > 100 µM
